Patent publication US20250163052A1, “cGAS INHIBITORS AND USES THEREOF” (Cornell University, priority 2022, published 2025)

Assays:
m-cGAS = m-cGAS (Mus musculus, UniProt Q8C6L5); test: Cell-free mouse cGAS enzyme inhibition assay (ATP depletion, Kinase-Glo Max); format: biochemical; conditions: 1 h; for inhibition at 10 µM: read-out: m-cGAS, conc. 10 μM; for inhibition at 1 µM: read-out: m-cGAS, conc. 1 μM
NFkB-SEAP = test: THP1-Dual cells transfected with DNA, nfkb expression (Quantiblue); format: cell-based; conditions: Homo sapiens; for inhibition at 10 µM: THP-1, 10 μM; for inhibition at 30 µM: THP-1, 30 μM
Method: Evaluation of active cGAS inhibitors in THP1 cells (Table 3). Cellular activity of all compounds (in Table 3) was determined using THP1-Dual™ cells as described (Lama et. al., 2019). THP1-Dual™ cells (Invivogen) (50000 cells in 100 μl media) were seeded into each well of a 96-well plate and treated with compounds at various dilution for 4 hours. Subsequently, cells were transfected with DNA (2 ug/ml) and lipofectamine and incubate the cells were incubated overnight. Ifnb expression was measured in cell supernatant using Quantiluc, nfkb expression was determined using Quantiblue, and cell viability using Promega® CellTiter-Glo®.

h-cGAS = h-cGAS (Homo sapiens, UniProt Q8N884); test: Cell-free human cGAS enzyme inhibition assay (ATP depletion, Kinase-Glo Max); format: biochemical; conditions: 3 h; for inhibition at 1 µM: read-out: h-cGAS, conc. 1 μM; for inhibition at 10 µM: read-out: h-cGAS, conc. 10 μM
IFNB = test: THP1-Dual cells transfected with DNA, Ifnb expression (Quantiluc); format: cell-based; conditions: Homo sapiens; for inhibition at 10 µM: THP-1, 10 μM; for inhibition at 30 µM: THP-1, 30 μM
How it was run: (§1)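 Readouts after overnight incubation: Quantiluc luminescence for Ifnb, Quantiblue for nfkb (both in supernatant) and CellTiter-Glo for viability. Before the DNA stimulus (2 ug/ml, lipofectamine transfection), THP1-Dual cells received compound at several dilutions for 4 h.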

[1] = Metabolic stability in mouse liver microsomes; conditions: for Remaining (NCF = 60 min) / Remaining (T = 60 min): mouse liver microsomes; for Remaining (NCF = 60 min): no co-factor (no NADPH); for Remaining (T = 60 min): 60 min with NADPH
[2] = Metabolic stability in human liver microsomes; conditions: for Remaining (NCF = 60 min) / Remaining (T = 60 min): human liver microsomes; for Remaining (NCF = 60 min): no co-factor (no NADPH); for Remaining (T = 60 min): 60 min with NADPH
THP1 cells = test: THP1-Dual cells, cell viability (CellTiter-Glo); format: cell-based
How it was run: as §1

Chain of h-cGAS (Q8N884 whole entry): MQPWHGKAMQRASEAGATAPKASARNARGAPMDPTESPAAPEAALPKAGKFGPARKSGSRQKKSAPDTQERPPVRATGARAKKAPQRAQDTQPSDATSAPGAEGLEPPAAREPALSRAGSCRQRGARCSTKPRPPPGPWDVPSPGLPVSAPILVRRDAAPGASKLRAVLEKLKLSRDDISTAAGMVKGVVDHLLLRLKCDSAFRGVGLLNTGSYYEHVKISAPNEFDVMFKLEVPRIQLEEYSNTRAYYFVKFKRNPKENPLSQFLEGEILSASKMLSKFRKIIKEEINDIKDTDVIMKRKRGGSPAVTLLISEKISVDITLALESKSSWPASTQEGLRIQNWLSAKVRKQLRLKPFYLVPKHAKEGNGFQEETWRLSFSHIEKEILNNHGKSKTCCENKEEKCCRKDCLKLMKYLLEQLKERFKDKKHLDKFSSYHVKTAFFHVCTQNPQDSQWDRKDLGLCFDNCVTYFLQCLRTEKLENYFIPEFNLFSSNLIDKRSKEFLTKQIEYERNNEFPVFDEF
Chain of m-cGAS (Q8C6L5 whole entry): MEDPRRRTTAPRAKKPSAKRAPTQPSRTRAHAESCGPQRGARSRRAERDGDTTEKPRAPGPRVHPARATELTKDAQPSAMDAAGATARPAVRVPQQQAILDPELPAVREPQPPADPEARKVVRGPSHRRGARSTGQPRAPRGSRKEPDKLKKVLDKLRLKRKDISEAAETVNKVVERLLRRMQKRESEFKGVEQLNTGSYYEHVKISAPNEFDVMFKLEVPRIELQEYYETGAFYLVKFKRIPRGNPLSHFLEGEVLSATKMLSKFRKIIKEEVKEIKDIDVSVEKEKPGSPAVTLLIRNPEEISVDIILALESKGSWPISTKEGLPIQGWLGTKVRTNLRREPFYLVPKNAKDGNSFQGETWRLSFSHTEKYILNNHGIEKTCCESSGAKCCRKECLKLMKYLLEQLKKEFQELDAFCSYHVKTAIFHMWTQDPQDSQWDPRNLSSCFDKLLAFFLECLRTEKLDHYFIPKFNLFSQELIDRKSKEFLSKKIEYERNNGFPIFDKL

SMILES	inhibition at 10 µM (m-cGAS)	inhibition at 10 µM (NFkB-SEAP)	inhibition at 30 µM (NFkB-SEAP)	inhibition at 1 µM (h-cGAS)	inhibition at 10 µM (h-cGAS)	inhibition at 10 µM (IFNB)	inhibition at 30 µM (IFNB)	Cell viability 10 μM (THP1 cells)	Cell viability 30 μM (THP1 cells)	inhibition at 1 µM (m-cGAS)	other results
Cn1cc(-c2cc(Cl)c(Cl)c3c2c2c(n3C)CCN(C(=O)CN)C2)cn1 [Compound 11]	25 to 49%	< 24%	50 to 74%	75 to 100%	75 to 100%	50 to 74%	75 to 100%	++ (+, ++, and +++ mean the compound respectively shows 25-49%; 50-74%; or 75-100% viability to cells)	− (Cell viability <24%, in THP1 cells is expressed as “−”)	–	Remaining (NCF = 60 min) [1]: 97.7%; Remaining (T = 60 min) [1]: 80.1%; CLint scaled ([1]; mouse, liver microsomes): < 38 mL/min/kg; half-life ([1]; mouse, liver microsomes): > 145 min; microsomal CLint ([1]; mouse, liver microsomes): < 9.6 µL/min/mg; Remaining (NCF = 60 min) [2]: 116.1%; Remaining (T = 60 min) [2]: 88.2%; CLint scaled ([2]; human, liver microsomes): < 8.6 mL/min/kg; half-life ([2]; human, liver microsomes): > 145 min; microsomal CLint ([2]; human, liver microsomes): < 9.6 µL/min/mg
Cn1ccc(-c2cc(Cl)c(Cl)c3oc4c(c23)CN(C(=O)CO)CC4)n1 [Compound 24]	50 to 74%	< 24%	–	50 to 74%	75 to 100%	50 to 74%	75 to 100%	+++ (+, ++, and +++ mean the compound respectively shows 25-49%; 50-74%; or 75-100% viability to cells)	+++ (+, ++, and +++ mean the compound respectively shows 25-49%; 50-74%; or 75-100% viability to cells)	0 to 24%	Remaining (NCF = 60 min) [1]: 116.2%; Remaining (T = 60 min) [1]: 6.3%; CLint scaled ([1]; mouse, liver microsomes): < 23.1 mL/min/kg; half-life ([1]; mouse, liver microsomes): > 185 min; microsomal CLint ([1]; mouse, liver microsomes): < 7.5 µL/min/mg
NCC(=O)N1CCc2c(sc3c(Cl)c(Cl)cc(-c4nccs4)c23)C1 [Compound 84]	50 to 74%	< 24%	50 to 74%	25 to 49%	75 to 100%	25 to 49%	75 to 100%	+++ (+, ++, and +++ mean the compound respectively shows 25-49%; 50-74%; or 75-100% viability to cells)	− (Cell viability <24%, in THP1 cells is expressed as “−”)	0 to 24%	–
NCC(=O)N1CCc2c(sc3c(Cl)c(Cl)cc(-c4ccccn4)c23)C1 [Compound 86]	25 to 49%	< 24%	50 to 74%	0 to 24%	50 to 74%	< 24%	75 to 100%	+++ (+, ++, and +++ mean the compound respectively shows 25-49%; 50-74%; or 75-100% viability to cells)	− (Cell viability <24%, in THP1 cells is expressed as “−”)	0 to 24%	–
NCC(=O)N1CCc2c(sc3c(Cl)c(Cl)cc(-c4cncs4)c23)C1 [Compound 87]	75 to 100%	50 to 74%	75 to 100%	0 to 24%	50 to 74%	75 to 100%	75 to 100%	− (Cell viability <24%, in THP1 cells is expressed as “−”)	− (Cell viability <24%, in THP1 cells is expressed as “−”)	25 to 49%	–
NCC(=O)N1CCc2c(sc3c(Cl)c(Cl)cc(-c4ncccn4)c23)C1 [Compound 89]	25 to 49%	< 24%	50 to 74%	0 to 24%	50 to 74%	< 24%	50 to 74%	+++ (+, ++, and +++ mean the compound respectively shows 25-49%; 50-74%; or 75-100% viability to cells)	++ (+, ++, and +++ mean the compound respectively shows 25-49%; 50-74%; or 75-100% viability to cells)	0 to 24%	–
NCC(=O)N1CCc2c(sc3c(Cl)c(Cl)cc(-c4cnccn4)c23)C1 [Compound 90]	50 to 74%	25 to 49%	75 to 100%	0 to 24%	50 to 74%	25 to 49%	50 to 74%	+++ (+, ++, and +++ mean the compound respectively shows 25-49%; 50-74%; or 75-100% viability to cells)	− (Cell viability <24%, in THP1 cells is expressed as “−”)	25 to 49%	–
Cc1csc(-c2cc(Cl)c(Cl)c3sc4c(c23)CCN(C(=O)CN)C4)n1 [Compound 91]	50 to 74%	25 to 49%	–	25 to 49%	50 to 74%	50 to 74%	–	++ (+, ++, and +++ mean the compound respectively shows 25-49%; 50-74%; or 75-100% viability to cells)	− (Cell viability <24%, in THP1 cells is expressed as “−”)	0 to 24%	–
Cn1ncc(-c2cc(Cl)c(Cl)c3sc4c(c23)CCN(C(=O)CN)C4)n1 [Compound 92]	75 to 100%	75 to 100%	75 to 100%	25 to 49%	50 to 74%	75 to 100%	75 to 100%	++ (+, ++, and +++ mean the compound respectively shows 25-49%; 50-74%; or 75-100% viability to cells)	− (Cell viability <24%, in THP1 cells is expressed as “−”)	25 to 49%	–
Cn1cnc(-c2cc(Cl)c(Cl)c3sc4c(c23)CCN(C(=O)CN)C4)c1 [Compound 93]	50 to 74%	< 24%	50 to 74%	0 to 24%	50 to 74%	< 24%	75 to 100%	+++ (+, ++, and +++ mean the compound respectively shows 25-49%; 50-74%; or 75-100% viability to cells)	− (Cell viability <24%, in THP1 cells is expressed as “−”)	0 to 24%	–
NCC(=O)N1CCc2c(sc3c(Cl)c(Cl)cc(-n4cccn4)c23)C1 [Compound 94]	50 to 74%	< 24%	–	25 to 49%	50 to 74%	< 24%	–	+++ (+, ++, and +++ mean the compound respectively shows 25-49%; 50-74%; or 75-100% viability to cells)	–	0 to 24%	–
CNc1cnn(-c2cc(Cl)c(Cl)c3sc4c(c23)CCN(C(=O)CN)C4)c1 [Compound 95]	50 to 74%	25 to 49%	25 to 49%	–	50 to 74%	< 24%	25 to 49%	+++ (+, ++, and +++ mean the compound respectively shows 25-49%; 50-74%; or 75-100% viability to cells)	+++ (+, ++, and +++ mean the compound respectively shows 25-49%; 50-74%; or 75-100% viability to cells)	–	–
Cc1ccn(-c2cc(Cl)c(Cl)c3sc4c(c23)CCN(C(=O)CN)C4)n1 [Compound 96]	25 to 49%	< 24%	< 24%	0 to 24%	25 to 49%	< 24%	< 24%	+++ (+, ++, and +++ mean the compound respectively shows 25-49%; 50-74%; or 75-100% viability to cells)	+++ (+, ++, and +++ mean the compound respectively shows 25-49%; 50-74%; or 75-100% viability to cells)	–	–
NCC(=O)N1CCc2c(sc3c(Cl)c(Cl)cc(-n4ccnc4)c23)C1 [Compound 97]	50 to 74%	25 to 49%	75 to 100%	–	25 to 49%	50 to 74%	75 to 100%	+++ (+, ++, and +++ mean the compound respectively shows 25-49%; 50-74%; or 75-100% viability to cells)	+++ (+, ++, and +++ mean the compound respectively shows 25-49%; 50-74%; or 75-100% viability to cells)	–	–
O=C(O)Cc1ccccc1Nc1c(Cl)cccc1Cl [Diclofenac, reference compound]	–	–	–	–	–	–	–	–	–	–	Remaining (NCF = 60 min) [1]: 100.4%; Remaining (T = 60 min) [1]: 33.1%; half-life ([1]; mouse, liver microsomes): 38 min; microsomal CLint ([1]; mouse, liver microsomes): 36.5 µL/min/mg; Remaining (NCF = 60 min) [2]: 114.8%; Remaining (T = 60 min) [2]: 0.0%; CLint(mic) ([2]; human, liver microsomes): 323.6 µL/min/mg; T½ ([2]; human, liver microsomes): 4.3 min
C[C@]12CC[C@H]3[C@@H](CCC4=CC(=O)CC[C@@]43C)[C@@H]1CC[C@@H]2O [Testosterone, reference compound]	–	–	–	–	–	–	–	–	–	–	Remaining (NCF = 60 min) [1]: 88.7%; Remaining (T = 60 min) [1]: 0.0%; CLint scaled ([1]; mouse, liver microsomes): 1490 mL/min/kg; CLint(mic) ([1]; mouse, liver microsomes): 375.9 µL/min/mg; T½ ([1]; mouse, liver microsomes): 3.7 min; Remaining (NCF = 60 min) [2]: 109.9%; Remaining (T = 60 min) [2]: 4.0%; CLint scaled ([2]; human, liver microsomes): 98.2 mL/min/kg
